The nature of series [1]: Experiment 4: urinary calcium to creatinine ratio after gastric or dermal vitamin D3. Format: in vivo, rats. The protocol: Each point represents the mean ±SEM of 7 normal, 250-g rats.
(§1) Toxicity: Short-term responses to increasing doses of vitamin D3 given dermally or by gastric tube.
(§2) To compare the efficacy of increasing doses of vitamin D3 in the short term. A fatal oral vitamin D3 dose is 14 days of 2600 μg/day (Sheppard RM and DeLuca HF, Arch Biochem Biophys 1980; 202: 43-55). The present experiment was designed to compare effects of doses up to this level, given by gastric tube or dermally.

The conditions of series [2]: cited from earlier work.
The nature of series [3]: Experiment 4: short-term serum 25(OH)D3 response to increasing vitamin D3 doses. It counts as in vivo, rats. Particulars: first 48 hours. The procedure: Each point represents the mean ±SEM of 7 normal, 250-g rats;
as §1, §2

Series [4] in a line: Experiment 3: serum 25(OH)D3 after 6 weeks of vitamin D3 nutrition. It counts as in vivo, Male Wistar rats. The protocol:
Male, Wistar rats were obtained at 120-130 g, and placed on a 0.01% calcium, 0.7% phosphate diet that was vitamin D deficient (Teklad Test Diets, Madison, WI) this was for one week to help deplete vitamin D stores. For the next three weeks the rats were fed the vitamin D-deficient diet, but with normal, 0.5%, calcium. Starting with these 3 weeks, the rats were divided into four vitamin D3 -treatment groups, initially, nine rats per group: group a) supplemented once weekly with 0.6 μg vitamin D3 (average dose, 0.08 μg/day); group b) supplemented once every second day with vitamin D3 to provide 2 nmol/day, i.e., each dose was 4 nmol of vitamin D3; group c) supplemented once every second day with vitamin D3 to provide 8 μg/day. The preceding groups all received the vitamin D3 through an infant-feeding tube inserted through the mouth into the stomach. One group, d), received its vitamin D3 in the ethanol applied onto a shaved 2 cm×2 cm patch of skin on the back, this was done every second day to provide vitamin D3 at 8 μg/day. The volume of each dose of vitamin D3 given was adjusted so that the stated doses are per 250 g body weight. […]
Biochemical measurements. 1,25(OH)2 D3 in serum was measured by calf-thymus receptor-binding assay after initial purification of 1,25(OH)2 D3 with C18-OH cartridges (5). For the serum volumes that were minimal, serum was measured out in 50 μL increments, and the final result was adjusted for the volume of sample analyzed. […] The material eluting as 1,25(OH)2 D3 was evaporated and redissolved in acetonitrile: water for further purification with C18-OH cartridges and quantitation by thymus receptor assay, as described for serum. Renal 24-hydroxylase was measured by incubating mitochondria with [^3 H]-25(OH)D3 as substrate (Vieth and Fraser, J Biol Chem. 254:12455-12460;1979). […]

Series [5] in a line: Experiment 3: serum 1,25(OH)2 D3 during changes in dietary calcium. It counts as in vivo, Male Wistar rats. An excerpt:
Efficacy in the long-term: ability of oral and dermal vitamin D3 delivery to influence serum 1,25(OH)2 D3 levels in response to changes in dietary calcium.
Male, Wistar rats were obtained at 120-130 g, and placed on a 0.01% calcium, 0.7% phosphate diet that was vitamin D deficient (Teklad Test Diets, Madison, WI) this was for one week to help deplete vitamin D stores. For the next three weeks the rats were fed the vitamin D-deficient diet, but with normal, 0.5%, calcium. […]
Biochemical measurements. 1,25(OH)2 D3 in serum was measured by calf-thymus receptor-binding assay after initial purification of 1,25(OH)2 D3 with C18-OH cartridges (5). For the serum volumes that were minimal, serum was measured out in 50 μL increments, and the final result was adjusted for the volume of sample analyzed. […] The material eluting as 1,25(OH)2 D3 was evaporated and redissolved in acetonitrile: water for further purification with C18-OH cartridges and quantitation by thymus receptor assay, as described for serum. […]

For series [6] the following is noted: 14 days; cited from earlier work.

Consider one compound from patent publication US5532229A, “Topical administration of vitamin D to mammals” (priority 1994, dated 1996).

“Also recorded” adds a separate entry of the source.

With `C=C1CC[C@H](O)C/C1=C/C=C1\CCC[C@]2(C)[C@@H]([C@H](C)CCCC(C)C)CC[C@@H]12` [vitamin D3], the “increase in calcium in the urine” value is listed as 2.5 -fold in series [1] (highest dermal dose) and 6 -fold in series [1] (highest gastric dose). In addition, the solubility in water entry in series [2] is recorded as “not soluble in water”. The “serum 25(OH)D3 vs dose” value is given as “does not parallel the vitamin D3 dose beyond the 800 μg (2000 nmol)/day dose; also recorded: striking plateau” in series [3] (dermal, 800 to 2600 μg) and “parallels the vitamin D3 dose; also recorded: increased in a direct parallel to the dose” in series [3] (gastric, up to 2600 μg). The “effectiveness of dermal vs oral route in raising 25(OH)D3” value in series [4] (20 nmol/250 g/day) came to 85%. Further, the “serum 25(OH)D3” value was determined as 127 ± 4 nmol/L in series [4] (dermal 8 μg/day) and 148 ± 10 nmol/L in series [4] (gastric 8 μg/day). In addition, the “difference between the two routes in suppression of serum 1,25(OH)2 D3 levels” value in series [5] (20 nmol/250 g/day) is “no significant difference between the two routes”. Also, in series [5] (8 μg/day, gastric or dermal, all levels of calcium intake), the “serum 1,25(OH)2 D3, effect of supplementation” value is “lower serum 1,25(OH)2 D3 concentrations; also recorded: lower serum 1,25(OH)2 D3 at every level of calcium intake”. In addition, the fatal oral dose in series [6] is 2600 µg/day.
